Source: patent US20190055279A1, “NOVEL POLYPEPTIDES WITH IMPROVED PROTEOLYTIC STABILITY, AND METHODS OF PREPARING AND USING SAME” (TUFTS UNIVERSITY, priority 2015, published 2019)
Values joined by “and” are separate entries in the source; they are usually repeats but may differ in a detail not shown here. Equal values may be shown once. “Also recorded” adds a separate entry of the source. Where a SMILES comes first, the peptide text is derived from it. Side-chain parts run from the residue outwards. [ ]: non-standard residue; d: D form. The star is where a group is joined. N(CH2CF3)His = O=C(O)[C@H](Cc1c[nH]cn1)NCC(F)(F)F; Palmitoyl = CCCCCCCCCCCCCCCC(=O)*; βAla = NCCC(=O)O

What was measured:
DPP4 [1] = molecular target: T1, DPP4 (Homo sapiens, UniProt P27487); experiment: DPP4 degradation of GLP-2 peptides: incubation with recombinant DPP4, then GLP-2R reporter assay
T1 sequence (P27487 whole entry, species assumed): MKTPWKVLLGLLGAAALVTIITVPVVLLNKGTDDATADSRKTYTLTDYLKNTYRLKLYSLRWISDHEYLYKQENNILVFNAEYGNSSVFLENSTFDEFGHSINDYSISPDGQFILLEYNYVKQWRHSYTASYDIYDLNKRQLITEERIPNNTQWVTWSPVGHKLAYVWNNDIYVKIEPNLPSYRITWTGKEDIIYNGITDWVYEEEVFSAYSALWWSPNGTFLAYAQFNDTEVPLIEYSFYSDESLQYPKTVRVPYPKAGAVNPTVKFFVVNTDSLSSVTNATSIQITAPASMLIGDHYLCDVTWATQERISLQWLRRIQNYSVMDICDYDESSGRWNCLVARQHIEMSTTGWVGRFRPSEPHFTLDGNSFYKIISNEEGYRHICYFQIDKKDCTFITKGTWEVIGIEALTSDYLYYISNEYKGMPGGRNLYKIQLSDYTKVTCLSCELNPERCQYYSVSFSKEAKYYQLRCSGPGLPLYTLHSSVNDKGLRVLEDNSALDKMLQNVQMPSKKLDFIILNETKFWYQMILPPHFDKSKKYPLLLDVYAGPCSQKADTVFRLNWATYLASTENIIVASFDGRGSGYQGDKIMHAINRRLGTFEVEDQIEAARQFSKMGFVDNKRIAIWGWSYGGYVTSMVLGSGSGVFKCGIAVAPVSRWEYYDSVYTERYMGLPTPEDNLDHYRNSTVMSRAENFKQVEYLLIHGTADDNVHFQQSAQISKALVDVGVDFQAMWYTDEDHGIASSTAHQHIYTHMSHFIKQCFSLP
Experimental: Peptides were incubated with vehicle or recombinant DPP4. Serial dilutions of GLP2-1 and GLP2-4 were then applied to HEK293 cells, which had been transfected with cDNA encoding human GLP-2R and a cAMP-responsive reporter gene.
Peptides were incubated with recombinant DPP4. Serial dilutions of GLP-2 and GLP2-4 were then applied to HEK293 cells, which had been transfected with cDNA encoding human GLP-2R and a cAMP-responsive reporter gene. […] N=4, mean+SEM.
DPP4 resistance (FIG. 13): Lipidated peptides are compared with the prototype, F-GLP2-palm. After an overnight incubation (16 hrs) in the presence vs. the absence of DPP4, receptor mediated function is assessed as shown elsewhere herein. As a DPP4 susceptible control, parallel experiments are done using GLP-2. […] Following overnight preincubation, serial dilutions of ligands were prepared and added to GLP-2R expressing cells for 4 hours. A luciferase reporter gene assay was used to monitor Gαs coupled second messenger signaling.

C57BL/6J mice = experiment: Intestinal mucosal growth after five daily s.c. injections in C57BL/6J mice; type: in vivo; details: s.c. once daily for five days; for intestinal mucosal growth / trophic effect: 25 μg/mouse for villus height; for intestinal weight: sacrificed on day 6, N=6 animals/group
Experimental: C57BL/6J mice were injected s.c. once daily for five days with either vehicle, GLP2-L17K(l1)-4, or Gattex at indicated doses. Animals were sacrificed on day 6, followed by analysis of intestinal tissue.
C57BL/6J mice were injected s.c. once daily for five days with either vehicle, GLP2-L17K [L1]-4 or Gattex at indicated doses. Animals were sacrificed on day 6, followed by measurement of intestinal weight. […] C57BL/6J mice were injected s.c. once daily for five days with either 25 μg of GLP2-L17K [L1]-4 or vehicle. Animals were sacrificed on day 6.

[2] = Plasma GLP-2R agonist activity 24 h after s.c. injection in mice (luciferase reporter gene assay); type: in vivo; details: 1.25 μg s.c., compared with Gattex
Experimental: Clearance of this compound was compared to that of Gattex, an established GLP-2 based drug, Compounds (1.25 μg) were injected subcutaneously (s.c.) in mice. Plasma was collected after 24 h and analyzed by luciferase reporter gene assay for GLP-2R agonist activity.
Compounds (1.25 μg) were injected s.c. in mice. Plasma was collected after 24 h and analyzed by luciferase reporter gene assay for GLP-2R agonist activity.

FAP = molecular target: T2, FAP (Homo sapiens, UniProt Q12884); experiment: Stability assay with or without FAP, read out by receptor bioassay (FIG. 9A, FIG. 18); details: incubated with or without FAP
T2 sequence (Q12884 1-760): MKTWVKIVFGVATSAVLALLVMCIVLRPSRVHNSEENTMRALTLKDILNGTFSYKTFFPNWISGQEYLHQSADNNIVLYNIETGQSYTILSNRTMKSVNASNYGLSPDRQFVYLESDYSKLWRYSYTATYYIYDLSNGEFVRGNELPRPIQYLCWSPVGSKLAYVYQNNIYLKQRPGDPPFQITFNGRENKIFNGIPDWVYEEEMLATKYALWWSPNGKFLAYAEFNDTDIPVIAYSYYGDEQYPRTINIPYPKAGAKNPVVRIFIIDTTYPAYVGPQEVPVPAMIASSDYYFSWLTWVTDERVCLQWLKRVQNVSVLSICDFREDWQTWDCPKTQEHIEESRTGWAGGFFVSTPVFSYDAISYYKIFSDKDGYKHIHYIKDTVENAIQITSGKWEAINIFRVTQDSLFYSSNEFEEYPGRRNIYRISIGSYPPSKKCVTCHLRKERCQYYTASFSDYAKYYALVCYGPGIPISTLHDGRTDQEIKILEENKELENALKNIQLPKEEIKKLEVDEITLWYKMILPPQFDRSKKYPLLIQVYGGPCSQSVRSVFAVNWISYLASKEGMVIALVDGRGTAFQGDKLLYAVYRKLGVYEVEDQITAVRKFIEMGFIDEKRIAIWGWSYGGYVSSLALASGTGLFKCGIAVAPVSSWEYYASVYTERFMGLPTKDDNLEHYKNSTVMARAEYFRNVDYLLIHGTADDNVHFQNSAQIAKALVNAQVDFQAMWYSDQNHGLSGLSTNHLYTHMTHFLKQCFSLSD

DPP2 = DPP2 (Homo sapiens, UniProt Q9UHL4); experiment: Stability assay with or without DPP2, read out by receptor bioassay (FIG. 9A); details: incubated with or without DPP2
[3] = cited from earlier work
DPP4 [4] = molecular target: T1, DPP4; experiment: Sensitivity to DPP4: overnight incubation with recombinant DPP4 or vehicle, then receptor agonist bioassay
Experimental: Plotting concentration versus the luciferase activity yielded quantitative parameters for combined binding (potency) and signaling (efficacy) in a single step. […] DPP4 treated peptides: 10 μl of 0.26 mM peptide were incubated with 2 μL DPP4 in buffer ±DMSO for 18 hrs. Control peptides: 10 μl of 0.26 mM peptide was added to buffer ±DMSO. The final DMSO concentration was the same for all peptides and all peptides were diluted to 0.26 mM concentrations for the DPP4 assay.
Compounds are incubated overnight at 37° C. in the presence of recombinant DPP4 or vehicle (TRIS buffer). The samples are then assessed in GLP-1R agonist assays.
Compounds were incubated overnight at 37° C. in the presence of recombinant DPP4 or vehicle (TRIS buffer, pH 8.0). The samples were then assessed in GLP1R agonist assays as described elsewhere herein.

Compound: CC[C@H](C)[C@H](NC(=O)[C@H](Cc1ccccc1)NC(=O)[C@H](CC(=O)O)NC(=O)[C@H](CCCNC(=N)N)NC(=O)[C@H](C)NC(=O)[C@H](C)NC(=O)[C@H](CC(C)C)NC(=O)[C@H](CC(N)=O)NC(=O)[C@H](CC(=O)O)NC(=O)[C@H](CC(C)C)NC(=O)[C@@H](NC(=O)[C@@H](NC(=O)[C@H](CC(N)=O)NC(=O)[C@H](CCSC)NC(=O)[C@H](CCC(=O)O)NC(=O)[C@H](CC(=O)O)NC(=O)[C@H](CO)NC(=O)[C@H](Cc1ccccc1)NC(=O)[C@H](CO)NC(=O)CNC(=O)[C@H](CC(=O)O)NC(=O)[C@H](C)NC(=O)[C@H](Cc1c[nH]cn1)NCC(F)(F)F)[C@@H](C)O)[C@@H](C)CC)C(=O)N[C@@H](CC(N)=O)C(=O)N[C@@H](Cc1c[nH]c2ccccc12)C(=O)N[C@@H](CC(C)C)C(=O)N[C@H](C(=O)N[C@@H](CCC(N)=O)C(=O)N[C@H](C(=O)N[C@@H](CCCCN)C(=O)N[C@H](C(=O)N[C@H](C(=O)N[C@@H](CC(=O)O)C(=O)O)[C@@H](C)O)[C@@H](C)CC)[C@@H](C)O)[C@@H](C)CC [GLP2-4]
- DPP4 degradation / resistance (in words) (DPP4 [1]; GLP-2R readout): no potency loss; also recorded: completely resistant to degradation
- DPP4 degradation / resistance (in words) (DPP4 [1]; GLP-2R readout, listed as GLP-2-4): no potency loss

Compound: CCCCCCCCCCCCCCCC(=O)NCCC(=O)NCCCC[C@H](NC(=O)[C@H](CC(N)=O)NC(=O)[C@H](CC(=O)O)NC(=O)[C@H](CC(C)C)NC(=O)[C@@H](NC(=O)[C@@H](NC(=O)[C@H](CC(N)=O)NC(=O)[C@H](CCSC)NC(=O)[C@H](CCC(=O)O)NC(=O)[C@H](CC(=O)O)NC(=O)[C@H](CO)NC(=O)[C@H](Cc1ccccc1)NC(=O)[C@H](CO)NC(=O)CNC(=O)[C@H](CC(=O)O)NC(=O)[C@H](C)NC(=O)[C@H](Cc1c[nH]cn1)NCC(F)(F)F)[C@@H](C)O)[C@@H](C)CC)C(=O)N[C@@H](C)C(=O)N[C@@H](C)C(=O)N[C@@H](CCCNC(=N)N)C(=O)N[C@@H](CC(=O)O)C(=O)N[C@@H](Cc1ccccc1)C(=O)N[C@H](C(=O)N[C@@H](CC(N)=O)C(=O)N[C@@H](Cc1c[nH]c2ccccc12)C(=O)N[C@@H](CC(C)C)C(=O)N[C@H](C(=O)N[C@@H](CCC(N)=O)C(=O)N[C@H](C(=O)N[C@@H](CCCCN)C(=O)N[C@H](C(=O)N[C@H](C(=O)N[C@@H](CC(=O)O)C(=O)O)[C@@H](C)O)[C@@H](C)CC)[C@@H](C)O)[C@@H](C)CC)[C@@H](C)CC [GLP2-L17K(l1)-4] (H-[N(CH2CF3)His]ADGSFSDEMNTILDNK([βAla-Palmitoyl])AARDFINWLIQTKITD-OH; N-terminus and C-terminus assumed)
- intestinal mucosal growth / trophic effect (C57BL/6J mice): induces intestinal mucosal growth
- intestinal mucosal growth / trophic effect (C57BL/6J mice; listed as GLP2-L17K [L1]-4): trophic effect on the intestinal mucosa
- intestinal weight (C57BL/6J mice): enhances intestinal weight
- intestinal weight (C57BL/6J mice; listed as GLP2-L17K [L1]-4): increased intestinal weight in a dose dependent manner
- DPP4 degradation / resistance (in words) (DPP4 [1]; GLP-2R readout): refractory to DPP4 degradation
- DPP4 degradation / resistance (in words) (DPP4 [1]; GLP-2R readout, listed as F-GLP2-palm): protease (DPP4) resistant
- bioactivity in plasma 24 h after injection [2]: extended bioactivity in vivo
- bioactivity in plasma 24 h after injection ([2]; listed as GLP2-L17K [L1]-4): remains at high levels in the circulation

Compound: CC[C@H](C)[C@H](NC(=O)[C@H](Cc1ccccc1)NC(=O)[C@H](CCC(=O)O)NC(=O)[C@H](CCCCN)NC(=O)[C@H](C)NC(=O)[C@H](C)NC(=O)[C@H](CCC(N)=O)NC(=O)CNC(=O)[C@H](CCC(=O)O)NC(=O)[C@H](CC(C)C)NC(=O)[C@H](Cc1ccc(O)cc1)NC(=O)[C@H](CO)NC(=O)[C@H](CO)NC(=O)[C@@H](NC(=O)[C@H](CC(=O)O)NC(=O)[C@H](CO)NC(=O)[C@@H](NC(=O)[C@H](Cc1ccccc1)NC(=O)[C@@H](NC(=O)CNC(=O)[C@H](CCC(=O)O)NC(=O)[C@H](C)NC(=O)[C@@H](N)Cc1c[nH]cn1)[C@@H](C)O)[C@@H](C)O)C(C)C)C(=O)N[C@@H](C)C(=O)N[C@@H](Cc1c[nH]c2ccccc12)C(=O)N[C@@H](CC(C)C)C(=O)N[C@H](C(=O)N[C@@H](CCCCN)C(=O)NCC(=O)N[C@@H](CCCNC(=N)N)C(N)=O)C(C)C [GLP-1, glucagon-like peptide-1, reference compound]
- stability to FAP (in words) (FAP): major potency losses
- stability to DPP2 (in words) (DPP2): major potency losses

Compound: CC[C@H](C)[C@H](NC(=O)[C@H](Cc1ccccc1)NC(=O)[C@H](CC(=O)O)NC(=O)[C@H](CCCN=C(N)N)NC(=O)[C@H](C)NC(=O)[C@H](C)NC(=O)[C@H](CC(C)C)NC(=O)[C@H](CC(N)=O)NC(=O)[C@H](CC(=O)O)NC(=O)[C@H](CC(C)C)NC(=O)[C@@H](NC(=O)[C@@H](NC(=O)[C@H](CC(N)=O)NC(=O)[C@H](CCSC)NC(=O)[C@H](CCC(=O)O)NC(=O)[C@H](CC(=O)O)NC(=O)[C@H](CO)NC(=O)[C@H](Cc1ccccc1)NC(=O)[C@H](CO)NC(=O)CNC(=O)[C@H](CC(=O)O)NC(=O)[C@H](C)NC(=O)[C@@H](N)Cc1cnc[nH]1)[C@@H](C)O)[C@@H](C)CC)C(=O)N[C@@H](CC(N)=O)C(=O)N[C@@H](Cc1c[nH]c2ccccc12)C(=O)N[C@@H](CC(C)C)C(=O)N[C@H](C(=O)N[C@@H](CCC(N)=O)C(=O)N[C@H](C(=O)N[C@@H](CCCCN)C(=O)N[C@H](C(=O)N[C@H](C(=O)N[C@@H](CC(=O)O)C(=O)O)[C@@H](C)O)[C@@H](C)CC)[C@@H](C)O)[C@@H](C)CC [GLP-2, glucagon-like peptide-2, reference compound]
- DPP4 degradation / resistance (in words) (DPP4 [1]; GLP-2R readout): degraded by DPP4
- loss in potency induced by DPP4 (DPP4 [1]; GLP-2R readout, N=4): > 40 fold
- peptide degraded by DPP4 (DPP4 [1]; inferred from potency loss): > 97% and ~97%
- half-life in vivo [3]: 7 min

Compound: CCCCCCCCCCCCCCCC(=O)N[C@@H](CCC(=O)NCCCC[C@H](NC(=O)[C@H](C)NC(=O)[C@H](C)NC(=O)[C@H](CCC(N)=O)NC(=O)CNC(=O)[C@H](CCC(=O)O)NC(=O)[C@H](CC(C)C)NC(=O)[C@H](Cc1ccc(O)cc1)NC(=O)[C@H](CO)NC(=O)[C@H](CO)NC(=O)[C@@H](NC(=O)[C@H](CC(=O)O)NC(=O)[C@H](CO)NC(=O)[C@@H](NC(=O)[C@H](Cc1ccccc1)NC(=O)[C@@H](NC(=O)CNC(=O)[C@H](CCC(=O)O)NC(=O)[C@H](C)NC(=O)[C@@H](N)Cc1cnc[nH]1)[C@@H](C)O)[C@@H](C)O)C(C)C)C(=O)N[C@@H](CCC(=O)O)C(=O)N[C@@H](Cc1ccccc1)C(=O)N[C@H](C(=O)N[C@@H](C)C(=O)N[C@@H](Cc1c[nH]c2ccccc12)C(=O)N[C@@H](CC(C)C)C(=O)N[C@H](C(=O)N[C@@H](CCCNC(=N)N)C(=O)NCC(=O)N[C@@H](CCCNC(=N)N)C(=O)NCC(=O)O)C(C)C)[C@@H](C)CC)C(=O)O [liraglutide]
- potency loss after incubation with DPP4 (DPP4 [4]; overnight incubation with the enzyme, GLP-1R readout): > 50 fold

Compound: Glucagon
- DPP4 degradation / resistance (in words) (DPP4 [4]; overnight incubation with or without DPP4, readout at cognate receptor): degraded by DPP4
